Data on seven compounds can be found in patent US6316207A, “Mouse cardiac muscle cell line, HL-1” (priority 1999, dated 2001).

One data set deals with guinea pig myocytes. The note with it: read-out: Kd for [^3 H]dofetilide binding in guinea pig myocytes, mean+/-SD, n=3, Chadwick et al; cited from earlier work.
Data set [1] has as its target T1, [^3 H]dofetilide binding site in HL-1 cells (IKr) (Mus musculus, UniProt O35219).
T1 sequence (O35219 1-1162): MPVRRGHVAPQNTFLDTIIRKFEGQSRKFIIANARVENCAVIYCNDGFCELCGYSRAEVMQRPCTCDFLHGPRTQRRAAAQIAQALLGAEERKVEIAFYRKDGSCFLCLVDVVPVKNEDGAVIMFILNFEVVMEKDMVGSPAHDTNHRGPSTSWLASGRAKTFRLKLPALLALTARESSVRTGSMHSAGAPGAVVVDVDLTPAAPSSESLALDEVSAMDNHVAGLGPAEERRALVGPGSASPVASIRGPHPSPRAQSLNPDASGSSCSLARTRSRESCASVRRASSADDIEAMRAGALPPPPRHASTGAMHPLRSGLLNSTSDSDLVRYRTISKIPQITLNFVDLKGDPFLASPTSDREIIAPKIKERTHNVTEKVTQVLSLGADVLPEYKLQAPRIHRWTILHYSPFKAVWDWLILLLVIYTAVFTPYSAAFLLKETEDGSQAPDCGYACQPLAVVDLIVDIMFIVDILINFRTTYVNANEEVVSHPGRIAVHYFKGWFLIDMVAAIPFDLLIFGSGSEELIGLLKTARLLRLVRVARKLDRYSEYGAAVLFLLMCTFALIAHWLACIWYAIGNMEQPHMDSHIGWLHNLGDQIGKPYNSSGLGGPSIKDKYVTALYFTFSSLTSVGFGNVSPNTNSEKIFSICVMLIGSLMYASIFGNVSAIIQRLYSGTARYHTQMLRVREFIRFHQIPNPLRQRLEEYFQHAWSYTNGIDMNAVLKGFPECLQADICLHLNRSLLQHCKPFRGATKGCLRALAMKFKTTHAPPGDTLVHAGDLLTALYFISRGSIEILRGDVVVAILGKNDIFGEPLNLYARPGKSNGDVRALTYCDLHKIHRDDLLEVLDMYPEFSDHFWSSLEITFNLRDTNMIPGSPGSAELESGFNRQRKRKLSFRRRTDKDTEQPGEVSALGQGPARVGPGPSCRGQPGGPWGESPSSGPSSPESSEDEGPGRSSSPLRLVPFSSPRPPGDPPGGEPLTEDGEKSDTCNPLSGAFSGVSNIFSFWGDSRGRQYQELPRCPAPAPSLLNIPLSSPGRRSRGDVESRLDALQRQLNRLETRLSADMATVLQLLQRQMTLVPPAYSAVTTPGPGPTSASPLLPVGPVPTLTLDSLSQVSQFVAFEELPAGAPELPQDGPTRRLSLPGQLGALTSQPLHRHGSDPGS
The experiment in a line: biochemical.
Experimental: HL-1 cells from passages 60 to 80 are dissociated from tissue culture flasks with a 5 min incubation with 0.1% trypsin (Clonetics, San Diego) followed by inactivation in a trypsin neutralizing solution (Clonetics, San Diego). The cells are suspended in a buffer containing (mM) KCl 40, KH2 PO4 20, MgCl2 5, KHCO3 0.5, glucose 10, potassium glutamate5 0, potassium asparate 20, EGTA 1 and HEPES (N-[2-Hydroxyethyl]piperazine-N'-[2-ethanesulfonic acid]) 10, adjusted to pH 7.4 with KOH and containing 0.1% bovine serum albumin (BSA). […] The cells are then filtered on GF/C Unifilter® 96 well filter plates (Packard, Meriden, Conn.) using a Packard Micromate496® harvester. Filter plates are presoaked with wash buffer (25 mM Tris-HCl, 130 mM NaCl, 5.5 mM KCl, 0.8 mM MgCl2 and 50 μM CaCl2 [pH 7.4]) containing 1.0% BSA and washed following harvesting at room temperature with four ×1 ml washes of the same buffer without BSA.

The subject of data set [2] is IKr in guinea pig myocytes. The note with it: cited from earlier work.
In data set [3] the test system is [^3 H]dofetilide binding site in guinea pig myocytes. The note with it: cited from earlier work.
For data set [4], the system named is IKr in rabbit ventricular myocytes. The note with it: Carmeliet 1992, read-out: IC50 reported for IKr in rabbit ventricular myocytes; cited from earlier work.
The test system of a further data set is HL-1 cells. Nature of the data set: Contractile activity (spontaneous beating) of HL-1 cells. It is filed as cell-based, mouse. The method, then:
CONTRACTILE ACTIVITY OF HL-1 CELLS
HL-1 cells are found to respond to several pharmacological agents in a manner expected for cardiomyocytes. Confluent cultures of HL-1 cells at passage 33 in growth medium (without norepinephrine or retinoic acid) display spontaneous contractile activity (beating).
In other experiments, spontaneously beating confluent HL-1 cells in growth medium are stopped by adding propranolol. First, norepinephrine bitartrate is added to a final concentration of 10^-5 M. Under these stimulated conditions, propranolol is subsequently added.
To determine if the effect of 10^-4 M propranolol is reversible, the culture medium containing propranolol is removed and growth medium (without norepinephrine or retinoic acid) is added to the cell cultures.

Where a name gives a salt, the structure may show the parent alone. Read-outs that look alike come from different tables or passages of the source.

On to `[3H]c1cc(OCCN(C)CCc2ccc(NS(C)(=O)=O)cc2)ccc1NS(C)(=O)=O` [[^3 H]dofetilide], for which, in the data set with guinea pig myocytes, the Kd is 70 ± 6 nM.
With `CN1CCN(CCCCN2C(=O)CN(/N=C/c3ccc(-c4ccc(Cl)cc4)o3)C2=O)CC1` [azimilide dihydrochloride], in data set [1], the Kd is 800 nM. Besides, the IC50 – broadly, the concentration that inhibits the measured activity by half – in data set [2] (Fermini et al 1995, read-out: IC50 for blocking the rapidly activating component of the delayed rectifier IKr) was 400 nM.
Turning to `CCCCCCC[N+](CC)(CC)CCCCc1ccc(Cl)cc1` [clofilium], the Kd in data set [3] (cardiac myocytes) is 1290 nM.
As for `CN(CCOc1ccc(NS(C)(=O)=O)cc1)CCc1ccc(NS(C)(=O)=O)cc1` [dofetilide], the Kd in data set [3] (read-out: Kd, competition for [^3 H]dofetilide binding, Cardiac Myocytes, primary guinea pig myocytes, Chadwick et al, SEM and N in own columns) is 100 nM. Also, the IC50 was 4 nM in data set [4]; 31 nM in data set [2] (Jurkiewicz and Sanguinetti 1993, read-out: IC50 reported for IKr in guinea pig myocytes).
Regarding `NC[C@H](O)c1ccc(O)c(O)c1` [norepinephrine bitartrate], in the data set on HL-1 cells (final concentration 10^-5 M, passage 33, within two minutes, growth medium without norepinephrine or retinoic acid), the “contractile activity (beating) of HL-1 cells” value is given as “beating faster”.
With `CC(C)NCC(O)COc1cccc2ccccc12` (centres unmarked) [propranolol], the “time to arrest of all contractions” value in the data set with HL-1 cells (final concentration 10^-4 M, after 10^-5 M norepinephrine bitartrate) was ≤ 10 min. In addition, in the data set with HL-1 cells (final concentration 10^-4 M, after stimulation with 10^-5 M norepinephrine bitartrate, within 10 minutes), the arrest of contractions result was “arrests all contractions”. Besides, the “effect on contractile activity” value in the data set with HL-1 cells (final concentrations of 10^-7 M, 10^-6 M, and 10^-5 M, after 10^-5 M norepinephrine bitartrate) is listed as “no observable effect”. Besides, the “time to recovery of contractile activity after removal of drug” value in the data set with HL-1 cells (previously exposed to 10^-4 M (printed 10^31 4 M)) is ≤ 1 h. The “reversibility: contractile activity after removal of drug” value in the data set on HL-1 cells (previously exposed to 10^-4 M (printed 10^31 4 M), within 1 hour after medium change) was “contractile activity similiar to control HL-1 cell not exposed to propranolol”.
Take `COc1ccc(CCN(C)CCCC(C#N)(c2ccc(OC)c(OC)c2)C(C)C)cc1OC` (centres unmarked) [verapamil hydrochloride]: the “contractile activity after addition of drug” value in the data set with HL-1 cells (final concentrations of 10^-7 M, 10^-6 M and 10^-5 M, growth medium without norepinephrine or retinoic acid) was “no observable contractile activity”.
